Assays:
Test in all cases: drug sensitivity score (DSS) from 5-point dose-response viability curve (DSS (area-under-curve based score)); higher = more sensitive (stronger growth inhibition or killing); extreme values may be limits of the assay
Conditions in all cases: exposure time: 72 h; concentration range: 5 concentrations over 10,000-fold range
JHOS2 = tested on: JHOS2
Procedure, shortened: (§1)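 Viability of ovarian cancer and normal ovarian cell lines was read by CellTiter-Glo luminescence after 3 days at 37°C and 5% CO2 in 384-well plates holding 1,500 cells per well. Drugs had been dispensed in DMSO or water with an Echo 550 at five concentrations over a 10,000-fold range. Using Breeze software, a drug sensitivity score was assigned per cell line and drug, higher scores meaning more sensitive, and zero means no response.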

OV90 = tested on: OV90
Procedure, shortened: as §1

OVCAR8 = tested on: OVCAR8
Procedure, shortened: as §1

COV318 = tested on: COV318
Procedure, shortened: as §1

COV362 = tested on: COV362
Procedure, shortened: as §1

Kuramochi = tested on: Kuramochi
Procedure, shortened: as §1

OVCAR5 = tested on: OVCAR5
Procedure, shortened: as §1

CAOV3 = tested on: CAOV3
Procedure, shortened: as §1

OVCAR4 = tested on: OVCAR4
Procedure, shortened: as §1

Ovsaho = tested on: Ovsaho
Procedure, shortened: as §1

HOSE1C = tested on: HOSE1C
Procedure, shortened: as §1

HOSE2C = tested on: HOSE2C
Procedure, shortened: as §1

Q: How did the drug sensitivity score (JHOS2) turn out when `CNC(=O)c1nn(C)c2c1C(C)(C)Cc1cnc(Nc3ccc(N4CCN(C)CC4)cc3)nc1-2` [Milciclib] was run?
A: 9.1

Q: What about the drug sensitivity score (OV90) of the same molecule?
A: 8.1

Q: And the drug sensitivity score (OVCAR8)?
A: 6.2

Q: What about the drug sensitivity score (COV318) of the same molecule?
A: 6.5

Q: And the drug sensitivity score (COV362)?
A: 5.4

Q: What about the drug sensitivity score (Kuramochi) of the same molecule?
A: 10.1

Q: And the drug sensitivity score (OVCAR5)?
A: 9.4

Q: And the drug sensitivity score (CAOV3)?
A: 6.8

Q: What about the drug sensitivity score (OVCAR4) of the same molecule?
A: 6.4

Q: And the drug sensitivity score (Ovsaho)?
A: 10.7

Q: And the drug sensitivity score (HOSE1C)?
A: 8.8

Q: And the drug sensitivity score (HOSE2C)?
A: 7.4

Q: Which drug sensitivity score (JHOS2) does the source give for `CCCCCCCCCCCCCCCCOP(=O)([O-])OCC[N+](C)(C)C` [Miltefosine] here?
A: 11.5

Q: And the drug sensitivity score (OV90)?
A: 4.1

Q: And the drug sensitivity score (OVCAR8)?
A: 5

Q: What about the drug sensitivity score (COV318) of the same molecule?
A: 4.7

Q: And the drug sensitivity score (COV362)?
A: 3.4

Q: What about the drug sensitivity score (Kuramochi) of the same molecule?
A: 5.8

Q: What about the drug sensitivity score (OVCAR5) of the same molecule?
A: 9.1

Q: What about the drug sensitivity score (CAOV3) of the same molecule?
A: 12.8

Q: What about the drug sensitivity score (OVCAR4) of the same molecule?
A: 3.5

Q: What about the drug sensitivity score (Ovsaho) of the same molecule?
A: 7.3

Q: And the drug sensitivity score (HOSE1C)?
A: 5.5

Q: What about the drug sensitivity score (HOSE2C) of the same molecule?
A: 5.9

Q: For `CO[C@@]12[C@H](COC(N)=O)C3=C(C(=O)C(C)=C(N)C3=O)N1C[C@@H]1N[C@@H]12` [Mitomycin C], which drug sensitivity score (JHOS2) is on record?
A: 0

Q: And the drug sensitivity score (OV90)?
A: 0.9

Q: What about the drug sensitivity score (OVCAR8) of the same molecule?
A: 0

Q: And the drug sensitivity score (COV318)?
A: 0

Q: And the drug sensitivity score (COV362)?
A: 0

Q: And the drug sensitivity score (Kuramochi)?
A: 0

Q: What about the drug sensitivity score (OVCAR5) of the same molecule?
A: 0

Q: What about the drug sensitivity score (CAOV3) of the same molecule?
A: 4.7

Q: What about the drug sensitivity score (OVCAR4) of the same molecule?
A: 0

Q: What about the drug sensitivity score (Ovsaho) of the same molecule?
A: 0

Q: What about the drug sensitivity score (HOSE1C) of the same molecule?
A: 0

Q: What about the drug sensitivity score (HOSE2C) of the same molecule?
A: 0

Q: Which drug sensitivity score (JHOS2) does the source give for `Clc1ccc(C(c2ccccc2Cl)C(Cl)Cl)cc1` (stereo unspecified) [Mitotane] here?
A: 0

Q: And the drug sensitivity score (OV90)?
A: 0.5

Q: What about the drug sensitivity score (OVCAR8) of the same molecule?
A: 0

Q: And the drug sensitivity score (COV318)?
A: 0.1

Q: And the drug sensitivity score (COV362)?
A: 0

Q: And the drug sensitivity score (Kuramochi)?
A: 0

Q: And the drug sensitivity score (OVCAR5)?
A: 0

Q: And the drug sensitivity score (CAOV3)?
A: 0

Q: What about the drug sensitivity score (OVCAR4) of the same molecule?
A: 0.3

Q: And the drug sensitivity score (Ovsaho)?
A: 0

Q: What about the drug sensitivity score (HOSE1C) of the same molecule?
A: 0

Q: And the drug sensitivity score (HOSE2C)?
A: 0

Q: How did the drug sensitivity score (JHOS2) turn out when `O=C1c2c(O)ccc(O)c2C(=O)c2c(NCCNCCO)ccc(NCCNCCO)c21` [Mitoxantrone] was run?
A: 6.2

Q: And the drug sensitivity score (OV90)?
A: 5.9

Q: What about the drug sensitivity score (OVCAR8) of the same molecule?
A: 9.2

Q: What about the drug sensitivity score (COV318) of the same molecule?
A: 3.9

Q: What about the drug sensitivity score (COV362) of the same molecule?
A: 4

Q: What about the drug sensitivity score (Kuramochi) of the same molecule?
A: 3.2

Q: What about the drug sensitivity score (OVCAR5) of the same molecule?
A: 6.1

Q: And the drug sensitivity score (CAOV3)?
A: 13

Q: What about the drug sensitivity score (OVCAR4) of the same molecule?
A: 4.2

Q: And the drug sensitivity score (Ovsaho)?
A: 6.5

Q: What about the drug sensitivity score (HOSE1C) of the same molecule?
A: 12.5

Q: And the drug sensitivity score (HOSE2C)?
A: 12.8

Q: With `CCS(=O)(=O)Nc1ccc(Oc2ccc(F)cc2F)c(-c2cn(C)c(=O)c3[nH]ccc23)c1` [Mivebresib] as the molecule, how does the drug sensitivity score (JHOS2) read?
A: 18.4

Q: What about the drug sensitivity score (OV90) of the same molecule?
A: 22.1

Q: And the drug sensitivity score (OVCAR8)?
A: 24.7

Q: And the drug sensitivity score (COV318)?
A: 6.4

Q: What about the drug sensitivity score (COV362) of the same molecule?
A: 9.4

Q: What about the drug sensitivity score (Kuramochi) of the same molecule?
A: 22.6

Q: What about the drug sensitivity score (OVCAR5) of the same molecule?
A: 20.2

Q: What about the drug sensitivity score (CAOV3) of the same molecule?
A: 25.3

Q: What about the drug sensitivity score (OVCAR4) of the same molecule?
A: 18.3

Q: What about the drug sensitivity score (Ovsaho) of the same molecule?
A: 22.8

Q: And the drug sensitivity score (HOSE1C)?
A: 30.7

Q: What about the drug sensitivity score (HOSE2C) of the same molecule?
A: 25.6

Q: Which results are given for `Nc1ccccc1NC(=O)c1ccc(CNc2nccc(-c3cccnc3)n2)cc1` [Mocetinostat]?
A: drug sensitivity score (JHOS2): 7.3; drug sensitivity score (OV90): 7.5; drug sensitivity score (OVCAR8): 13; drug sensitivity score (COV318): 8.1; drug sensitivity score (COV362): 1.1; drug sensitivity score (Kuramochi): 7; drug sensitivity score (OVCAR5): 13.7; drug sensitivity score (CAOV3): 7.1; drug sensitivity score (OVCAR4): 6.8; drug sensitivity score (Ovsaho): 7.8; drug sensitivity score (HOSE1C): 17.8; drug sensitivity score (HOSE2C): 15.7

Q: Which results are given for `CCNC(=O)C[C@@H]1N=C(c2ccc(Cl)cc2)c2cc(OC)ccc2-n2c(C)nnc21` [Molibresib]?
A: drug sensitivity score (JHOS2): 4.1; drug sensitivity score (OV90): 8.4; drug sensitivity score (OVCAR8): 5.7; drug sensitivity score (COV318): 3.3; drug sensitivity score (COV362): 2.3; drug sensitivity score (Kuramochi): 9.3; drug sensitivity score (OVCAR5): 7.8; drug sensitivity score (CAOV3): 8.4; drug sensitivity score (OVCAR4): 4.3; drug sensitivity score (Ovsaho): 9.3; drug sensitivity score (HOSE1C): 9.8; drug sensitivity score (HOSE2C): 10

Q: `N#CCNC(=O)c1ccc(-c2ccnc(Nc3ccc(N4CCOCC4)cc3)n2)cc1` [Momelotinib] was tested. Which drug sensitivity score (JHOS2) did it give?
A: 6.9

Q: What about the drug sensitivity score (OV90) of the same molecule?
A: 2.6

Q: And the drug sensitivity score (OVCAR8)?
A: 4.8

Q: And the drug sensitivity score (COV318)?
A: 2.7

Q: And the drug sensitivity score (COV362)?
A: 1

Q: And the drug sensitivity score (Kuramochi)?
A: 1

Q: And the drug sensitivity score (OVCAR5)?
A: 3.3

Q: What about the drug sensitivity score (CAOV3) of the same molecule?
A: 0.9

Q: What about the drug sensitivity score (OVCAR4) of the same molecule?
A: 0

Q: What about the drug sensitivity score (Ovsaho) of the same molecule?
A: 2.4

Q: What about the drug sensitivity score (HOSE1C) of the same molecule?
A: 6.8

Q: What about the drug sensitivity score (HOSE2C) of the same molecule?
A: 5.8

Q: `CC1(C)CNc2cc(NC(=O)c3cccnc3NCc3ccncc3)ccc21` [Motesanib] was tested. Which drug sensitivity score (JHOS2) did it give?
A: 0

Q: What about the drug sensitivity score (OV90) of the same molecule?
A: 0.3

Q: And the drug sensitivity score (OVCAR8)?
A: 0

Q: What about the drug sensitivity score (COV318) of the same molecule?
A: 1.1

Q: What about the drug sensitivity score (COV362) of the same molecule?
A: 0

Q: And the drug sensitivity score (Kuramochi)?
A: 2.1

Q: And the drug sensitivity score (OVCAR5)?
A: 0

Q: What about the drug sensitivity score (CAOV3) of the same molecule?
A: 0

Q: What about the drug sensitivity score (OVCAR4) of the same molecule?
A: 0

Q: And the drug sensitivity score (Ovsaho)?
A: 3.5

Q: What about the drug sensitivity score (HOSE1C) of the same molecule?
A: 0

Q: And the drug sensitivity score (HOSE2C)?
A: 0

Q: With `CCCN(CCC)C(=O)C1=Cc2ccc(-c3ccc(C(=O)N4CCCC4)cc3)cc2N=C(N)C1` [Motolimod] as the molecule, how does the drug sensitivity score (JHOS2) read?
A: 1.8

Q: And the drug sensitivity score (OV90)?
A: 1.9

Q: And the drug sensitivity score (OVCAR8)?
A: 0.8

Q: What about the drug sensitivity score (COV318) of the same molecule?
A: 2.3

Q: And the drug sensitivity score (COV362)?
A: 0

Q: And the drug sensitivity score (Kuramochi)?
A: 0.3

Q: What about the drug sensitivity score (OVCAR5) of the same molecule?
A: 0.5

Q: And the drug sensitivity score (CAOV3)?
A: 0

Q: What about the drug sensitivity score (OVCAR4) of the same molecule?
A: 0.9

Q: What about the drug sensitivity score (Ovsaho) of the same molecule?
A: 0

Q: And the drug sensitivity score (HOSE1C)?
A: 0

Q: And the drug sensitivity score (HOSE2C)?
A: 0

Q: Which results are given for `FC(F)(F)c1ccc(/C=C/c2nc(COc3ccc(CCCCn4ccnn4)cc3)co2)cc1` [Mubritinib]?
A: drug sensitivity score (JHOS2): 0.3; drug sensitivity score (OV90): 5.9; drug sensitivity score (OVCAR8): 16.7; drug sensitivity score (COV318): 0.8; drug sensitivity score (COV362): 0; drug sensitivity score (Kuramochi): 0.6; drug sensitivity score (OVCAR5): 0.9; drug sensitivity score (CAOV3): 5.4; drug sensitivity score (OVCAR4): 2.2; drug sensitivity score (Ovsaho): 0.5; drug sensitivity score (HOSE1C): 0; drug sensitivity score (HOSE2C): 0

Q: Which results are given for `Cc1cc(OCc2nnc(SC3CCCC3)n2-c2cccnc2)ccc1-c1ccc(S(C)(=O)=O)cc1` [NMS-873]?
A: drug sensitivity score (JHOS2): 6.7; drug sensitivity score (OV90): 12.4; drug sensitivity score (OVCAR8): 19.9; drug sensitivity score (COV318): 8.7; drug sensitivity score (COV362): 4.4; drug sensitivity score (Kuramochi): 6.8; drug sensitivity score (OVCAR5): 8.9; drug sensitivity score (CAOV3): 8.6; drug sensitivity score (OVCAR4): 7.9; drug sensitivity score (Ovsaho): 6.9; drug sensitivity score (HOSE1C): 9.3; drug sensitivity score (HOSE2C): 8.1
